Experimental data reported in article PMC6332596 (Journal of Hematology & Oncology, 2019).
“Also recorded” adds a separate entry of the source. Like-named read-outs stand apart in the source and are kept apart here.

How the values were obtained:
[1] = Pharmacokinetics of plasma chiauranib after single and multiple oral doses in patients (LC-MS/MS); assay type: in vivo, human
Experimental: Three milliliters of venous blood samples was drawn into heparinized tubes before drug administration as well as at 1, 2, 4, 6, 8, 12, 24, 48, 72, 96, 120, and 144 h post-dose. […] Three milliliters of venous blood samples was drawn into heparinized tubes before administration as well as at 1, 2, 4, 8, 12, and 24 h post the oral dose on day 28. […] Samples were centrifuged immediately at 3600×g for 10 min at 4 °C, and the plasma fractions were separated and stored at − 20 °C until analysis.
The intra- and inter-day precisions and accuracies (relative standard deviation, %RSD) were in the range of 1.75–6.33%, and − 7.88–9.00%, respectively. The extraction recovery (relative standard deviation, %RSD) was 1.32–5.16%.
Descriptive statistics were used for baseline characteristics, safety assessments, pharmacokinetic variables (including Cmax, Tmax, AUC, and t1/2) and exploratory efficacy assessments, including tumor response and time to progression. Continuous variables were summarized with means, standard deviations (SD), medians, minimums, and maximums. Categorical variables were summarized by counts and by percentage of patients in corresponding categories. P values < 0.05 were considered statistically significant. Statistical analyses were performed using SAS® v9.4 (Cary, NC).

[2] = test system: advanced solid tumor and lymphoma; assay: Tumor response by RECIST 1.1 in patients; assay type: in vivo, human
Experimental: Tumor response was evaluated by the Response Evaluation Criteria in Solid Tumors (RECIST) version 1.1. Tumor response was assessed by computed tomography (CT) and/or magnetic resonance imaging (MRI) scans at screening and every 8 weeks (2 cycles) during the first 12 cycles.

VEGFR2 = test system: VEGFR2; parameters: method as in PMID 28004478; conditions: cited from earlier work
VEGFR1 = test system: VEGFR1; parameters: method as in PMID 28004478; conditions: cited from earlier work
VEGFR3 = test system: VEGFR3; parameters: method as in PMID 28004478; conditions: cited from earlier work
c-Kit = test system: c-Kit; parameters: method as in PMID 28004478; conditions: cited from earlier work
Aurora B = test system: Aurora B; parameters: method as in PMID 28004478; conditions: cited from earlier work
CSF-1R = test system: CSF-1R; parameters: method as in PMID 28004478; conditions: cited from earlier work
[3] = test system: off-target non-receptor kinases, proteins, GPCR, and ion channels; parameters: method as in PMID 28004478; conditions: cited from earlier work
[4] = test system: human tumor xenograft models inoculated with human cancer cell lines derived from colon, lung, liver, or stomach cancers; parameters: method as in PMID 28004478; conditions: cited from earlier work
[5] = Day28, multiple dose 10 mg once daily (n = 2)
[6] = Day28, multiple dose 20 mg once daily (n = 6)
[7] = Day28, multiple dose 35 mg once daily (n = 3)
[8] = Day28, multiple dose 50 mg once daily (n = 3)
[9] = Day28, multiple dose 65 mg once daily (n = 4)
[10] = human, plasma, oral, 10 mg, Day1, single dose 10 mg (n = 2)
[11] = human, plasma, oral, 10 mg, Day28, multiple dose 10 mg once daily (n = 2)
[12] = human, plasma, oral, 20 mg, Day1, single dose 20 mg (n = 6)
[13] = human, plasma, oral, 20 mg, Day28, multiple dose 20 mg once daily (n = 6)
[14] = human, plasma, oral, 35 mg, Day1, single dose 35 mg (n = 3)
[15] = human, plasma, oral, 35 mg, Day28, multiple dose 35 mg once daily (n = 3)
[16] = human, plasma, oral, 50 mg, Day1, single dose 50 mg (n = 3)
[17] = human, plasma, oral, 50 mg, Day28, multiple dose 50 mg once daily (n = 3)
[18] = human, plasma, oral, 65 mg, Day1, single dose 65 mg (n = 4)
[19] = human, plasma, oral, 65 mg, Day28, multiple dose 65 mg once daily (n = 4)

In the case of `COc1ccc2c(Oc3ccc4c(C(=O)Nc5ccccc5N)cccc4c3)ccnc2c1` [chiauranib], the “dose dependence of plasma exposure” value ([1]; 10 to 65 mg, single and multiple dose) is reported as “dose proportional and good linear pharmacokinetic profile”, the Cav [1, 5] is reported as 174 (9) ng/mL and the Ctrough [1, 5] is reported as 122 (21) ng/mL. The DF [1, 5] was 1.1 (0.4), the Cav [1, 6] was 257 (64) ng/mL and the Ctrough [1, 6] was 191 (89) ng/mL. The DF [1, 6] was 1.3 (0.6), the Cav [1, 7] was 490 (336) ng/mL and the Ctrough [1, 7] was 330 (208) ng/mL. For the same compound, the DF [1, 7] was 0.8 (0.4), the Cav [1, 8] was 604 (235) ng/mL and the Ctrough [1, 8] was 467 (166) ng/mL. The DF [1, 8] was 1.1 (0.3), the Cav [1, 9] was 1010 (492) ng/mL and the Ctrough [1, 9] was 890 (662) ng/mL. For the same compound, the DF [1, 9] was 1.5 (0.8), the median peak time ([1]; after first dose in run-in period, 10-65 mg, range from 1 to 4 h) was 2 h and the “increase of trough plasma concentration versus after first administration” value ([1]; continuous once daily dosing) was “twofold”. For the same compound, the Cmax [1, 10] was 201 ng/mL, the Tmax [1, 10] was 2 h and the AUC(0-t) ([1]; human, plasma, oral, 10 mg, Day1, single dose 10 mg (n = 2), read-out: AUC0–24 h) was 2000 ng·h/mL. It also gave an AUC(0-t) ([1]; human, plasma, oral, 10 mg, Day1, single dose 10 mg (n = 2), read-out: AUC0–144 h) of 3580 ng·h/mL, a Cmax [1, 11] of 312 ng/mL and a Tmax [1, 11] of 2 h. It also gave an AUC(0-t) ([1]; human, plasma, oral, 10 mg, Day28, multiple dose 10 mg once daily (n = 2), read-out: AUC0–24 h) of 4180 ng·h/mL, a Cmax [1, 12] of 354 ng/mL and a Tmax [1, 12] of 2 h. The AUC(0-t) ([1]; human, plasma, oral, 20 mg, Day1, single dose 20 mg (n = 6), read-out: AUC0–24 h) was 3450 ng·h/mL, the AUC(0-t) ([1]; human, plasma, oral, 20 mg, Day1, single dose 20 mg (n = 6), read-out: AUC0–144 h) was 6820 ng·h/mL and the Cmax [1, 13] was 517 ng/mL. The Tmax [1, 13] was 2 h, the AUC(0-t) ([1]; human, plasma, oral, 20 mg, Day28, multiple dose 20 mg once daily (n = 6), read-out: AUC0–24 h) was 6180 ng·h/mL and the Cmax [1, 14] was 608 ng/mL. The Tmax [1, 14] was 1 h, the AUC(0-t) ([1]; human, plasma, oral, 35 mg, Day1, single dose 35 mg (n = 3), read-out: AUC0–24 h) was 5760 ng·h/mL and the AUC(0-t) ([1]; human, plasma, oral, 35 mg, Day1, single dose 35 mg (n = 3), read-out: AUC0–144 h) was 11900 ng·h/mL. It also gave a Cmax [1, 15] of 773 ng/mL, a Tmax [1, 15] of 4 h and an AUC(0-t) ([1]; human, plasma, oral, 35 mg, Day28, multiple dose 35 mg once daily (n = 3), read-out: AUC0–24 h) of 11800 ng·h/mL. It also gave a Cmax [1, 16] of 756 ng/mL, a Tmax [1, 16] of 1 h and an AUC(0-t) ([1]; human, plasma, oral, 50 mg, Day1, single dose 50 mg (n = 3), read-out: AUC0–24 h) of 7420 ng·h/mL. It also gave an AUC(0-t) ([1]; human, plasma, oral, 50 mg, Day1, single dose 50 mg (n = 3), read-out: AUC0–144 h) of 16400 ng·h/mL, a Cmax [1, 17] of 1120 ng/mL and a Tmax [1, 17] of 2 h. It also gave an AUC(0-t) ([1]; human, plasma, oral, 50 mg, Day28, multiple dose 50 mg once daily (n = 3), read-out: AUC0–24 h) of 14500 ng·h/mL, a Cmax [1, 18] of 1280 ng/mL and a Tmax [1, 18] of 1.5 h. It also gave an AUC(0-t) ([1]; human, plasma, oral, 65 mg, Day1, single dose 65 mg (n = 4), read-out: AUC0–24 h) of 11000 ng·h/mL, an AUC(0-t) ([1]; human, plasma, oral, 65 mg, Day1, single dose 65 mg (n = 4), read-out: AUC0–144 h) of 24800 ng·h/mL and a Cmax [1, 19] of 2240 ng/mL. The Tmax [1, 19] was 2 h, the AUC(0-t) ([1]; human, plasma, oral, 65 mg, Day28, multiple dose 65 mg once daily (n = 4), read-out: AUC0–24 h) was 24200 ng·h/mL and the half-life ([1]; human, plasma, oral, after first dose in run-in period, 10-65 mg, read-out: terminal half-life (t1/2) (converted)) was 1540 ± 404 min. The “patients achieving SD among six with prior anti-angiogenic agents” value ([2]; 6/18 patients pretreated with anti-angiogenic agents) was “five”, the “stable disease (SD) as best response” value ([2]; 12 of 18 patients, investigator's assessment) was 66.7% and the “complete or partial response” value ([2]; 18 patients) was “No complete or partial responses were observed; also recorded: No partial or complete response was observed”. The “duration of confirmed SD” value ([2]; one patient with DLBCL, 10 mg cohort) was 596 days, the “change in the sum of the longest diameters of target lesions at best response” value ([2]; one patient with ovarian cancer (65 mg cohort)) was 22.2% and the IC50 (VEGFR2) was “single-digit nanomolar range”. The IC50 (VEGFR1) was “single-digit nanomolar range”, the IC50 (VEGFR3) was “single-digit nanomolar range” and the IC50 (c-Kit) was “single-digit nanomolar range”. The IC50 (Aurora B) was “single-digit nanomolar range”, the IC50 (CSF-1R) was “single-digit nanomolar range” and the activity on off-targets [3] was “little activity”. The “activity against human tumor xenograft models” value [4] was “broad activity”.
